Activity calls are given as the source filed them. No cut-off for these calls is given here.
How the values were obtained:
Influenza A virus [1] = experiment: Antiviral activity against Influenza A virus A/HK/8/68(H3N2) infected in MDCK cells assessed as inhibition of virus-induced cytopathic effects after 3 days by CCK-8 assay; assay type: functional, organism-based; details: 72 h
[2] = Cytotoxicity against MDCK cells after 3 days by CCK-8 assay; assay type: cell-based, Canis lupus familiaris; details: dog
Influenza A virus [3] = experiment: Antiviral activity against Influenza A virus A/Guangzhou/2009 (H1N1) infected in MDCK cells assessed as inhibition of virus-induced cytopathic effects after 3 days by CCK-8 assay; assay type: functional, organism-based; details: 72 h
Influenza A virus [4] = experiment: Antiviral activity against Influenza A virus […] infected in MDCK cells assessed as inhibition of virus-induced cytopathic effects after 3 days by CCK-8 assay; assay type: functional, organism-based; details: 72 h
Influenza A virus [5] = experiment: Antiviral activity against Influenza A virus A/Weiss/43 (H1N1) infected in MDCK cells assessed as inhibition of virus-induced cytopathic effects after 3 days by CCK-8 assay; assay type: functional, organism-based, Influenza A virus (A/Weiss/1943(H1N1)); details: 72 h
Influenza A virus [6] = experiment: Antiviral activity against Influenza A virus A/Mal/302/54 (H1N1) infected in MDCK cells assessed as inhibition of virus-induced cytopathic effects after 3 days by CCK-8 assay; assay type: functional, organism-based; details: 72 h
Influenza A virus [7] = experiment: Antiviral activity against Influenza A virus A/Brisbane/10/2007 (H3N2) infected in MDCK cells assessed as inhibition of virus-induced cytopathic effects after 3 days by CCK-8 assay; assay type: functional, organism-based; details: 72 h
Influenza A virus [8] = experiment: Antiviral activity against Influenza A virus A/udorn/1972 (H3N2) infected in MDCK cells assessed as inhibition of virus-induced cytopathic effects after 3 days by CCK-8 assay; assay type: functional, organism-based; details: 72 h
Influenza A virus [9] = experiment: Antiviral activity against Influenza A virus A/Guangdong/96 (H9N2) infected in MDCK cells assessed as inhibition of virus-induced cytopathic effects after 3 days by CCK-8 assay; assay type: functional, organism-based; details: 72 h
Influenza A virus [10] = experiment: Antiviral activity against Influenza A virus A/WSN/33 (H1N1) infected in MDCK cells assessed as inhibition of nucleoprotein accumulation in nucleus at 10 uM after 4 hrs by fluorescent microscopy; assay type: functional, organism-based; details: A/WSN/1933(H1N1)

Structure (SMILES) | IC50 (Influenza A virus [1]) | CC50 at 72 h [2] | further results
COc1cccc(OC)c1-n1nnc(C)c1C(=O)N1CCN(c2ccc([N+](=O)[O-])cc2Cl)CC1 | 2.42 µM | > 100 µM | 
COc1ccccc1-n1nnc(C)c1C(=O)N1CCCN(c2ccc([N+](=O)[O-])cc2Cl)CC1 | > 50 µM | > 100 µM | 
CCc1nnn(-c2ccccc2OC)c1C(=O)N1CCN(c2ccc([N+](=O)[O-])cc2Cl)CC1 | > 50 µM | > 100 µM | 
Cc1nnn(-c2ccc(Cl)cc2)c1C(=O)N1CCN(c2ccc([N+](=O)[O-])cc2Cl)CC1 | > 50 µM | > 100 µM | 
COc1ccc(-n2nnc(C)c2C(=O)N2CCN(c3ccc([N+](=O)[O-])cc3Cl)CC2)cc1 | 14.7 µM | > 100 µM | 
CC(=O)c1ccccc1-n1nnc(C)c1C(=O)N1CCN(c2ccc([N+](=O)[O-])cc2Cl)CC1 | 14.8 µM | > 100 µM | 
COc1ccccc1-c1ccccc1C(=O)N1CCN(c2ccc([N+](=O)[O-])cc2Cl)CC1 | 3.68 µM |  | 
COc1ccccc1-n1nncc1C(=O)N1CCN(c2ccc([N+](=O)[O-])cc2Cl)CC1 | > 50 µM | > 100 µM | 
CCOc1ccccc1-n1nnc(C)c1C(=O)N1CCN(c2ccc([N+](=O)[O-])cc2Cl)CC1 | 8.97 µM | > 100 µM | 
COc1ccccc1-n1nnc(C)c1C(=O)N1CCN(c2ccc([N+](=O)[O-])cc2Cl)CC1 | 1.97 µM | > 100 µM | IC50 (Influenza A virus [3]): 0.52 µM; IC50 (Influenza A virus [4]): 1.86 µM; IC50 (Influenza A virus [5]): 0.66 µM; IC50 (Influenza A virus [6]): 0.9 µM; IC50 (Influenza A virus [7]): > 50 µM; IC50 (Influenza A virus [8]): 1.17 µM; IC50 (Influenza A virus [9]): 4.62 µM; inhibition (Influenza A virus [10]): Active
Cc1nnn(-c2ccccc2Cl)c1C(=O)N1CCN(c2ccc([N+](=O)[O-])cc2Cl)CC1 | 5.65 µM | > 100 µM | 
Cc1[nH]nc(-c2ccccc2)c1C(=O)N1CCN(c2ccc([N+](=O)[O-])cc2Cl)CC1 | 8.64 µM |  | 
Cc1ccccc1-n1nnc(C)c1C(=O)N1CCN(c2ccc([N+](=O)[O-])cc2Cl)CC1 | 4.92 µM | > 100 µM | 
Cc1nnn(-c2ccccc2)c1C(=O)N1CCN(c2ccc([N+](=O)[O-])cc2Cl)CC1 | 5.16 µM | > 100 µM | 
Cc1noc(-c2ccccc2)c1C(=O)N1CCN(c2ccc([N+](=O)[O-])cc2Cl)CC1 | 6 µM |  | 
COc1ccccc1-n1nnc(C)c1C(=O)N1CCN(c2ccccc2)CC1 | > 50 µM | > 100 µM | 
O=C(c1ccccc1-c1ccccc1)N1CCN(c2ccc([N+](=O)[O-])cc2Cl)CC1 | 7.61 µM |  | 
Cc1onc(-c2ccccc2)c1C(=O)N1CCN(c2ccc([N+](=O)[O-])cc2Cl)CC1 [NUCLEOZIN] | 1.08 µM | 15.9 µM | IC50 (Influenza A virus [3]): 0.54 µM; IC50 (Influenza A virus [4]): 1.59 µM; IC50 (Influenza A virus [5]): 0.2 µM; IC50 (Influenza A virus [6]): 0.52 µM; IC50 (Influenza A virus [7]): 12.4 µM; IC50 (Influenza A virus [8]): 0.34 µM; IC50 (Influenza A virus [9]): 3.87 µM
Cc1nnn(-c2ccccc2OC(C)C)c1C(=O)N1CCN(c2ccc([N+](=O)[O-])cc2Cl)CC1 | 16.2 µM | > 100 µM | 
COc1ccccc1-n1nnc(C)c1C(=O)N1CCN(c2ccccc2Cl)CC1 | > 50 µM | > 100 µM | 
Cc1[nH]nc(-c2ccccc2Cl)c1C(=O)N1CCN(c2ccc([N+](=O)[O-])cc2Cl)CC1 | 2.87 µM |  | 
COc1cc([N+](=O)[O-])ccc1N1CCN(C(=O)c2c(C)nnn2-c2ccccc2OC)CC1 | > 50 µM | > 100 µM | 
Cc1nnn(-c2cccc(Cl)c2)c1C(=O)N1CCN(c2ccc([N+](=O)[O-])cc2Cl)CC1 | 9.38 µM | > 100 µM | 
COc1cccc(-n2nnc(C)c2C(=O)N2CCN(c3ccc([N+](=O)[O-])cc3Cl)CC2)c1 | 13.8 µM | > 100 µM | 
NC12CC3CC(CC(C3)C1)C2 [AMANTADINE] | 2.22 µM | > 100 µM | 
COc1ccccc1-n1nnc(C)c1C(=O)N1CCN(c2ccc([N+](=O)[O-])cc2)CC1 | > 50 µM | > 100 µM | 
Cc1nnn(-c2ccccc2O)c1C(=O)N1CCN(c2ccc([N+](=O)[O-])cc2Cl)CC1 | 7.84 µM | > 100 µM | 
COc1ccccc1-c1onc(C)c1C(=O)N1CCN(c2ccc([N+](=O)[O-])cc2Cl)CC1 | 2.62 µM |  | 
